In US10023484B2, “Use of peracetic acid/hydrogen peroxide and peroxide-reducing agents for treatment of drilling fluids, frac fluids, flowback water and disposal water” (Ecolab USA Inc., priority 2012, dated 2018):

Experiments:
fracking water mixtures [1] = experiment: Micro efficacy: POAA dosed for 30 ppm residual versus POAA pretreated with catalase (Example 8); format: cell-based
Description: A micro efficacy comparison of POAA added at levels to target 30 ppm POAA residuals at 5 minutes versus POAA pretreated with catalase was conducted as set forth in Table 12.

fracking water mixtures [2] = experiment: Micro efficacy baseline in fracking water mixtures without catalase (Example 3); format: cell-based
Description: The impact of water pretreatment with 500 ppm of the EnviroSan product (75 ppm POAA) on micro efficacy in various fracking water mixtures were evaluated. The example represents a baseline data set of various water treatment options according to the invention. Table 2 and FIG. 3 show the average log reduction in various slick water treatments with varying ppm PAA (without any catalase treatment or pretreatment), representing a baseline data set.

[3] = Effect of catalase and treatment sequence on peracid stability in 80/20 water blends (Example 10); format: physicochemical; details: theoretical initial POAA 82 ppm
Source text: The effect of catalase on the peracid stability within treated waters was further evaluated. Water blends of 80/20 (80% fresh water/20% produced water) were employed to analyze the impact on various treatment sequences set forth in Table 14.
Due to the efficacious results shown in FIG. 15, the same methods were used to further evaluate a pretreatment using a lower concentration of the catalase as shown in Table 15.

[4] = Titration of POAA consumption in water mixtures (Example 6); format: physicochemical; details: 1 minute
[5] = test system: Pseudomonas aeruginosa ATCC 15442; experiment: Micro efficacy at 30 ppm POAA EnviroSan with/without catalase, with/without water pretreatment (Example 7); format: cell-based; details: no pretreatment, 30 ppm PAA
Description: Additional micro efficacy performance was evaluated to confirm the improved micro efficacy observed in Example 6 when using increasing amounts of produced water with the dosing static initial concentrations of POAA (30 ppm or 40 ppm) with catalase. Improved micro efficacy with increased amounts of produced water present in a mixture is a highly counterintuitive result and was unexpected. Under normal conditions, it would be expected to have decreased micro efficacy as the amount of produced water (e.g. recycled) increases and the amount of POAA remains static as a result of the increased contamination found in produced water as opposed to fresh water sources. As a result, subsequent evaluation observed the activity of the water itself against a spiked culture of P. aeruginosa over a 1 hour exposure period to determine whether the produced water itself has an antimicrobial present.
All water mixtures were treated with an initial concentration of 30 ppm POAA EnviroSan, both with and without the addition of catalase. The data set evaluates whether there is a significant difference in micro activity generated between treatments of EnviroSan alone vs. EnviroSan pre-reduced with catalase.
All ratios of fracking water mixtures tested (100/0, 90/10, 80/20 & 70/30) were freshly mixed solutions, as well as solutions mixed and pretreated with 500 ppm EnviroSan product more than 1 hour before the start of the micro evaluation, in order to observe if a pretreatment step is of value for micro performance compared to those mixtures not pretreated. The test system (P. aeruginosa and natural water) described in Example 5 was again utilized. Water mixtures as outlined in Table 9 were provided (showing the percentage of 100 mL of each water sample type).
The testing methods of Example 5 were utilized for the chemically treated water samples, differing only in the combination of the 10 mL inoculated water mixtures with appropriate volumes of the EnviroSan with or without catalase to achieve 30 ppm POAA residual to each test tube in timed intervals and mixed. The methods of Example 5 were employed to make the EnviroSan with catalase stock solutions. In comparison, for the water samples that were not chemically treated, 9.9 mL of test water mixture was dispensed into 2 individual test tubes. 0.10 mL of an approximate 10^8 CFU/mL culture of P. aeruginosa was added in timed intervals and mixed thoroughly. Then 1 mL samples were neutralized in 9 mL of 0.5% sodium thiosulfate, followed by serial dilution and enumeration after 2.5 minutes, 5 minutes and 60 minute exposure times.
In addition, data for enumeration of water samples for antimicrobial activity against P. aeruginosa over 60 minutes exposure are also summarized in Table 10.

[6] = Pretreated, catalase CA 400 5.8 ppm
[7] = Simult. Add, catalase CA 400 10 ppm
[8] = Simult. Add, catalase CA 400 100 ppm

SMILES: CC(=O)OO [POAA, peracetic acid]
- Avg. Log10 Reduction (fracking water mixtures [1]; 10% reuse H2O, 30 ppm PAA, Catalase, 2.5 minutes): 5.29
- Avg. Log10 Reduction (fracking water mixtures [1]; 10% reuse H2O, 30 ppm PAA, Catalase, 5 minutes): 5.96
- Avg. Log10 Reduction (fracking water mixtures [1]; 10% reuse H2O, 46 ppm PAA, NO Catalase, 2.5 minutes): 4.32
- Avg. Log10 Reduction (fracking water mixtures [1]; 10% reuse H2O, 46 ppm PAA, NO Catalase, 5 minutes): 4.72
- Avg. Log10 Reduction (fracking water mixtures [1]; 20% reuse H2O, 30 ppm PAA, Catalase, 2.5 minutes): 5.73
- Avg. Log10 Reduction (fracking water mixtures [1]; 20% reuse H2O, 30 ppm PAA, Catalase, 5 minutes): 6.36
- Avg. Log10 Reduction (fracking water mixtures [1]; 20% reuse H2O, 86 ppm PAA, NO Catalase, 2.5 minutes): 4.57
- Avg. Log10 Reduction (fracking water mixtures [1]; 20% reuse H2O, 86 ppm PAA, NO Catalase, 5 minutes): 4.64
- Avg. Log10 Reduction (fracking water mixtures [1]; 30% reuse H2O, 30 ppm PAA, Catalase, 2.5 minutes): 5.30
- Avg. Log10 Reduction (fracking water mixtures [1]; 30% reuse H2O, 30 ppm PAA, Catalase, 5 minutes): 5.98
- Avg. Log10 Reduction (fracking water mixtures [1]; 30% reuse H2O, 138 ppm PAA, NO Catalase, 2.5 minutes): 4.12
- Avg. Log10 Reduction (fracking water mixtures [1]; 30% reuse H2O, 138 ppm PAA, NO Catalase, 5 minutes): 5.00
- Avg. Log10 Reduction (fracking water mixtures [2]; 75 ppm PAA pretreatment, 10% reuse H2O, 29 ppm POAA, NO catalase, 2.5 minutes): 6.45
- Avg. Log10 Reduction (fracking water mixtures [2]; 75 ppm PAA pretreatment, 10% reuse H2O, 29 ppm POAA, NO catalase, 5 minutes): 6.71
- Avg. Log10 Reduction (fracking water mixtures [2]; 75 ppm PAA pretreatment, 20% reuse H2O, 47 ppm PAA, NO catalase, 2.5 minutes): 6.42
- Avg. Log10 Reduction (fracking water mixtures [2]; 75 ppm PAA pretreatment, 20% reuse H2O, 47 ppm PAA, NO catalase, 5 minutes): 6.55
- Avg. Log10 Reduction (fracking water mixtures [2]; 75 ppm PAA pretreatment, 30% reuse H2O, 86 ppm POAA, NO catalase, 2.5 minutes): 6.47
- Avg. Log10 Reduction (fracking water mixtures [2]; 75 ppm PAA pretreatment, 30% reuse H2O, 86 ppm POAA, NO catalase, 5 minutes): 6.41
- Avg. Log10 Reduction (fracking water mixtures [2]; no holding tank pretreatment, 0% reuse H2O, 22 ppm POAA, 2.5 minutes): 5.53
- Avg. Log10 Reduction (fracking water mixtures [2]; no holding tank pretreatment, 0% reuse H2O, 22 ppm POAA, 5 minutes): 5.75
- Avg. Log10 Reduction (fracking water mixtures [2]; no pretreatment, 10% reuse H2O, 36 ppm POAA, 2.5 minutes): 4.32
- Avg. Log10 Reduction (fracking water mixtures [2]; no pretreatment, 10% reuse H2O, 36 ppm POAA, 5 minutes): 4.72
- Avg. Log10 Reduction (fracking water mixtures [2]; no pretreatment, 20% reuse H2O, 86 ppm POAA, 2.5 minutes): 4.57
- Avg. Log10 Reduction (fracking water mixtures [2]; no pretreatment, 20% reuse H2O, 86 ppm POAA, 5 minutes): 4.64
- Avg. Log10 Reduction (fracking water mixtures [2]; no pretreatment, 30% reuse H2O, 138 ppm POAA, 2.5 minutes): 4.12
- Avg. Log10 Reduction (fracking water mixtures [2]; no pretreatment, 30% reuse H2O, 138 ppm POAA, 5 minutes): 5.00
- POAA Meas'd. at 1 min. ([3]; NA, catalase 0 ppm): 56 ppm
- POAA Meas'd. at 4 min. ([3]; NA, catalase 0 ppm): 31 ppm
- POAA Meas'd. at 5 min. ([3]; NA, catalase 0 ppm): 23 ppm
- POAA Meas'd. at 6 min. ([3]; NA, catalase 0 ppm): 17 ppm
- POAA Meas'd. at 1 min. [3, 6]: 76 ppm
- POAA Meas'd. at 4 min. [3, 6]: 75 ppm
- POAA Meas'd. at 5 min. [3, 6]: 75 ppm
- POAA Meas'd. at 6 min. [3, 6]: 75 ppm
- POAA Meas'd. at 1 min. [3, 7]: 63 ppm
- POAA Meas'd. at 4 min. [3, 7]: 34 ppm
- POAA Meas'd. at 5 min. [3, 7]: 31 ppm
- POAA Meas'd. at 6 min. [3, 7]: 26 ppm
- POAA Meas'd. at 1 min. [3, 8]: 66 ppm
- POAA Meas'd. at 4 min. [3, 8]: 61 ppm
- POAA Meas'd. at 5 min. [3, 8]: 65 ppm
- POAA Meas'd. at 6 min. [3, 8]: 58 ppm
- Actual Titrated Concentration (ppm POAA) ([4]; 70% Fresh/30% Produced, desired 30 ppm POAA): 7 ppm
- Actual Titrated Concentration (ppm POAA) ([4]; 70% Fresh/30% Produced, desired 40 ppm POAA): 12 ppm
- Actual Titrated Concentration (ppm POAA) ([4]; 80% Fresh/20% Produced, desired 30 ppm POAA): 13 ppm
- Actual Titrated Concentration (ppm POAA) ([4]; 80% Fresh/20% Produced, desired 40 ppm POAA): 21 ppm
- Actual Titrated Concentration (ppm POAA) ([4]; 90% Fresh/10% Produced, desired 30 ppm POAA): 21 ppm
- Actual Titrated Concentration (ppm POAA) ([4]; 90% Fresh/10% Produced, desired 40 ppm POAA): 30 ppm
- Avg. Log10 Reduction ([5]; 0% reuse H2O, Catalase, 2.5 minutes): 4.62
- Avg. Log10 Reduction ([5]; 0% reuse H2O, Catalase, 5 minutes): 6.22
- Avg. Log10 Reduction ([5]; 0% reuse H2O, NO Catalase, 2.5 minutes): 4.64
- Avg. Log10 Reduction ([5]; 0% reuse H2O, NO Catalase, 5 minutes): 6.32
- Avg. Log10 Reduction ([5]; 10% reuse H2O, Catalase, 2.5 minutes): 5.29
- Avg. Log10 Reduction ([5]; 10% reuse H2O, Catalase, 5 minutes): 5.96
- Avg. Log10 Reduction ([5]; 10% reuse H2O, NO Catalase, 2.5 minutes): 3.09
- Avg. Log10 Reduction ([5]; 10% reuse H2O, NO Catalase, 5 minutes): 3.91
- Avg. Log10 Reduction ([5]; 20% reuse H2O, Catalase, 2.5 minutes): 5.73
- Avg. Log10 Reduction ([5]; 20% reuse H2O, Catalase, 5 minutes): 6.36
- Avg. Log10 Reduction ([5]; 20% reuse H2O, NO Catalase, 2.5 minutes): 2.19
- Avg. Log10 Reduction ([5]; 20% reuse H2O, NO Catalase, 5 minutes): 2.38
- Avg. Log10 Reduction ([5]; 30% reuse H2O, Catalase, 2.5 minutes): 5.30
- Avg. Log10 Reduction ([5]; 30% reuse H2O, Catalase, 5 minutes): 5.98
- Avg. Log10 Reduction ([5]; 30% reuse H2O, NO Catalase, 2.5 minutes): 1.88
- Avg. Log10 Reduction ([5]; 30% reuse H2O, NO Catalase, 5 minutes): 1.93
